{"source": "ChEMBL document CHEMBL1126103", "about": "“3'-C-branched 2'-deoxy-5-methyluridines: synthesis, enzyme inhibition, and antiviral properties” (J Med Chem, 1992)", "key": {"MT4 [1]": {"tested_on": "MT4", "assay": "Effective concentration required to inhibit HIV-1-induced cytopathicity in MT-4 cells", "format": "functional, cell-based", "conditions": "Homo sapiens"}, "MT4 [2]": {"tested_on": "MT4", "assay": "Cytotoxic concentration required to reduce MT-4 cells viability by 50%", "format": "functional", "conditions": "Homo sapiens"}}, "data": [{"smiles": "Cc1cn([C@H]2C[C@@](C)(O)[C@@H](CO)O2)c(=O)[nH]c1=O", "values": [{"measurement": "EC50", "setting": "MT4 [1]", "result": "> 500", "unit": "µM"}, {"measurement": "CC50", "setting": "MT4 [2]", "result": "> 500", "unit": "µM"}]}, {"smiles": "Cc1cn([C@H]2C[C@](C)(O)[C@@H](COP(=O)(O)O)O2)c(=O)[nH]c1=O", "values": [{"measurement": "EC50", "setting": "MT4 [1]", "result": 72, "unit": "µM"}, {"measurement": "CC50", "setting": "MT4 [2]", "result": "> 500", "unit": "µM"}]}, {"smiles": "Cc1cn([C@H]2C[C@@](C)(O)[C@@H](COP(=O)(O)O)O2)c(=O)[nH]c1=O", "values": [{"measurement": "EC50", "setting": "MT4 [1]", "result": 243, "unit": "µM"}, {"measurement": "CC50", "setting": "MT4 [2]", "result": "> 500", "unit": "µM"}]}, {"smiles": "Cc1cn([C@H]2C[C@](C)(O)[C@@H](CO)O2)c(=O)[nH]c1=O", "values": [{"measurement": "EC50", "setting": "MT4 [1]", "result": "> 500", "unit": "µM"}, {"measurement": "CC50", "setting": "MT4 [2]", "result": "> 500", "unit": "µM"}]}]}
